The test system of one test is U937 cells. The experiment in a line: Cell viability assay (Cell-Titer-Glo) in U937 cells. Type of test: cell-based. As to conditions: test compounds 1 nM to 1 μM. Here is the method:
(§1) Cell viability assays were run using standard protocols known to those of skill in art. Cells were plated in 96 well plates at the density of 3,000-10,000 cells per well. Twenty four hours later, cells were treated with increasing concentration of test compounds (1 nM to 1 μM). After another 48 hour, cell survival was measured using Cell-Titer-Glo® reagent (Promega) following the protocol provided by the manufacture. The IC50 value was determined as the concentration of test compound that kills 50% of the cell population.
(§2) Cell viability data generated according to the protocol described above was generated for representative compounds in A2058 and U937 cells. The compounds shown in Table 1 were prepared by the methods described herein for structurally similar compounds. The reference compound was a synthetic diazonamide analog having the structure: […]

The subject of another test is A2058 cells. The experiment in a line: Cell viability assay (Cell-Titer-Glo) in A2058 cells. The note with it: Homo sapiens, 48 hour treatment, test compounds 1 nM to 1 μM. Type of test: cell-based. Here is the method: as §1, §2
Setting [1] is: Homo sapiens, U-937, 48 hour treatment.

Some results are limits rather than exact numbers.

The values below come from patent US8592469B2, “Diazonamide analogs” (Joyant Pharmaceuticals, Inc., priority 2012, dated 2013).

Broadly, the IC50 is the concentration needed to halve the response being measured. Read a low IC50 as greater potency in that assay.

For the compound `CC(C)[C@H](O)C(=O)N[C@H]1Cc2ccc(O)c(c2)[C@]2(CNc3ccccc32)C2=C(c3nc(CO)co3)N=C(O2)[C@H](C(C)C)NC1=O` (single isomer, unassigned) [Compound 102], the IC50 with U937 cells (setting [1]) is 225 nM; with A2058 cells, 492 nM.
Take `CC(C)[C@H](O)C(=O)NC1Cc2ccc3c(c2)C2(C4=C(c5nc(COC(=O)C(C)(C)C)co5)N=C(O4)[C@H](C(C)C)NC1=O)c1ccccc1N[C@H]2O3` (some centres unmarked) [Compound 21]: the IC50 in the test on U937 cells (setting [1]) worked out at 20 nM; with A2058 cells, 40 nM.
As to `CC(=O)OCc1coc(-c2nc3oc2C24c5ccccc5N[C@H]2Oc2ccc(cc24)C[C@H](NC(=O)[C@@H](O)C(C)C)C(=O)N[C@H]3C(C)C)n1` (some centres unmarked) [Compound 22], the values for the IC50 with U937 cells (setting [1]) and with A2058 cells were 19 nM and 52 nM, respectively.
For `CC(C)[C@H](O)C(=O)NC1Cc2ccc3c(c2)C2(C4=C(c5nc(COC=O)co5)N=C(O4)[C@H](C(C)C)NC1=O)c1ccccc1N[C@H]2O3` (some centres unmarked) [Compound 23], in that order: 21 nM and 57 nM.
As to `COC(=O)OCc1coc(-c2nc3oc2C24c5ccccc5N[C@H]2Oc2ccc(cc24)CC(NC(=O)[C@@H](O)C(C)C)C(=O)N[C@H]3C(C)C)n1` (some centres unmarked) [Compound 24], the IC50 stood at 19.7 nM with U937 cells (setting [1]) and 26 nM with A2058 cells.
In the case of `CC(C)[C@H](O)C(=O)N[C@H]1Cc2ccc3c(c2)C2(C4=C(c5nc(COP(=O)(O)O)co5)N=C(O4)[C@H](C(C)C)NC1=O)c1ccccc1N[C@H]2O3` (some centres unmarked) [Compound 25], the IC50 with U937 cells (setting [1]) was found to be 36.9 nM; with A2058 cells, 70.8 nM.
For `COC(=O)OCc1coc(-c2nc3oc2C24c5ccccc5N[C@H]2Oc2ccc(cc24)CC(NC(=O)[C@@H](O)C(C)C)C(=O)N[C@H]3C(C)(C)C)n1` (some centres unmarked) [Compound 26], the IC50 in the test on U937 cells (setting [1]) amounted to 2.88 nM; in the test on A2058 cells, 3.33 nM.
For `CC(C)[C@@H]1NC(=O)C(NC(=O)[C@@H](O)C(C)(C)C)Cc2ccc3c(c2)C2(C4=C(c5nc(CO)co5)N=C1O4)c1ccccc1N[C@H]2O3` (some centres unmarked) [Compound 27], in that order: 98 nM and 112 nM.
In the case of `CC(C)C[C@H](O)C(=O)N[C@H]1Cc2ccc3c(c2)C2(C4=C(c5nc(CO)co5)N=C(O4)[C@H](C(C)C)NC1=O)c1ccccc1N[C@H]2O3` (some centres unmarked) [Compound 28], the IC50 was 112 nM in the test on U937 cells (setting [1]) and 143 nM with A2058 cells.
On to `CC(O)c1coc(-c2nc3oc2C24c5ccccc5N[C@H]2Oc2ccc(cc24)C[C@H](NC(=O)[C@@H](O)C(C)C)C(=O)N[C@H]3C(C)C)n1` (some centres unmarked) [Compound 29], for which the IC50 in the test on U937 cells (setting [1]) was 59 nM; with A2058 cells, 119 nM.
Consider `CC(=O)c1coc(-c2nc3oc2C24c5ccccc5N[C@H]2Oc2ccc(cc24)C[C@H](NC(=O)[C@@H](O)C(C)C)C(=O)N[C@H]3C(C)C)n1` (some centres unmarked) [Compound 30], for which the figures for the IC50 in the test on U937 cells (setting [1]) and in the test on A2058 cells were 13 nM and 60 nM, respectively.
Regarding `CC(C)[C@H](O)C(=O)N[C@H]1Cc2ccc3c(c2)C2(C4=C(c5nc(C(C)(C)O)co5)N=C(O4)[C@H](C(C)C)NC1=O)c1ccccc1N[C@H]2O3` (some centres unmarked) [Compound 31], the concentration for half-maximal inhibition (IC50) in the test on U937 cells (setting [1]) is 259 nM; in the test on A2058 cells it was 602 nM.
As to `CNCc1coc(-c2nc3oc2C24c5ccccc5N[C@H]2Oc2ccc(cc24)C[C@H](NC(=O)[C@@H](O)C(C)C)C(=O)N[C@H]3C(C)C)n1` (some centres unmarked) [Compound 32], the IC50 with U937 cells (setting [1]) and with A2058 cells was over 1000 nM in each case.
For the compound `CC(C)[C@H](O)C(=O)N[C@H]1Cc2ccc3c(c2)C2(C4=C(c5nc(CN)co5)N=C(O4)[C@H](C(C)C)NC1=O)c1ccccc1N[C@H]2O3` (some centres unmarked) [Compound 33], the IC50 in the test on U937 cells (setting [1]) and with A2058 cells was over 1000 nM in each case.
`COC(=O)NCc1coc(-c2nc3oc2C24c5ccccc5N[C@H]2Oc2ccc(cc24)C[C@H](NC(=O)[C@@H](O)C(C)C)C(=O)N[C@H]3C(C)C)n1` (some centres unmarked) [Compound 34]: the values for the IC50 in the test on U937 cells (setting [1]) and in the test on A2058 cells were 134 nM and 149 nM, respectively.
For `CC(C)[C@H](O)C(=O)NC1Cc2ccc3c(c2)C2(C4=C(c5nc(CNS(C)(=O)=O)co5)N=C(O4)[C@H](C(C)C)NC1=O)c1ccccc1N[C@H]2O3` (some centres unmarked) [Compound 35], in that order: 198 nM and 151 nM.
For the compound `CC(C)[C@H](O)C(=O)N[C@H]1Cc2ccc3c(c2)C2(C4=C(c5nc(CNS(=O)(=O)c6ccccc6)co5)N=C(O4)[C@H](C(C)C)NC1=O)c1ccccc1N[C@H]2O3` (some centres unmarked) [Compound 36], the IC50 amounted to 209 nM with U937 cells (setting [1]) and 194 nM in the test with A2058 cells.
Turning to `COC(=O)Nc1coc(-c2nc3oc2C24c5ccccc5N[C@H]2Oc2ccc(cc24)CC(NC(=O)[C@@H](O)C(C)C)C(=O)N[C@H]3C(C)C)n1` (some centres unmarked) [Compound 37], the IC50 in the test on U937 cells (setting [1]) came to 178 nM; with A2058 cells, 235 nM.
On the same counts, the results for `CC(=O)Nc1oc(-c2nc3oc2C24c5ccccc5N[C@H]2Oc2ccc(cc24)CC(NC(=O)[C@@H](O)C(C)C)C(=O)N[C@H]3C(C)C)nc1C#N` (some centres unmarked) [Compound 38] are over 1000 nM and over 1000 nM.
On the same counts, the results for `CC(C)[C@H](O)C(=O)N[C@H]1Cc2ccc3c(c2)C2(C4=C(c5nc(C#N)co5)N=C(O4)[C@H](C(C)C)NC1=O)c1ccccc1N[C@H]2O3` (some centres unmarked) [Compound 39] are 71 nM and 23 nM.
`Cc1oc(-c2nc3oc2[C@@]24c5ccccc5NC2Oc2ccc(cc24)CC(NC(=O)[C@@H](O)C(C)C)C(=O)N[C@H]3C(C)C)nc1C#N` (some centres unmarked) [Compound 40]: the values for the IC50 in the test with U937 cells (setting [1]) and in the test on A2058 cells were 210 nM and 182 nM, respectively.
In the case of `CC(C)[C@H](O)C(=O)NC1Cc2ccc3c(c2)C2(C4=C(c5nc(C6OCCCO6)co5)N=C(O4)[C@H](C(C)C)NC1=O)c1ccccc1N[C@H]2O3` (some centres unmarked) [Compound 41], the IC50 in the test with U937 cells (setting [1]) and in the test on A2058 cells was 65 nM each time.
As for `CC(C)[C@H](O)C(=O)NC1Cc2ccc3c(c2)C2(C4=C(c5nc(C6OCCO6)co5)N=C(O4)[C@H](C(C)C)NC1=O)c1ccccc1N[C@H]2O3` (some centres unmarked) [Compound 42], the IC50 amounted to 43 nM in the test on U937 cells (setting [1]) and 49 nM in the test with A2058 cells.
On to `CC(C)[C@H](O)C(=O)N[C@H]1Cc2ccc3c(c2)C2(C4=C(c5nc(C6=NCCO6)co5)N=C(O4)[C@H](C(C)C)NC1=O)c1ccccc1N[C@H]2O3` (some centres unmarked) [Compound 43], for which the IC50 with U937 cells (setting [1]) is 19 nM; with A2058 cells, 22 nM.
`CC(C)[C@H](O)C(=O)NC1Cc2ccc3c(c2)[C@]2(C4=C(c5nc(-c6nnn[nH]6)co5)N=C(O4)[C@H](C(C)C)NC1=O)c1ccccc1NC2O3` (some centres unmarked) [Compound 44]: the IC50 in the test on U937 cells (setting [1]) and with A2058 cells was over 1000 nM throughout.
Consider `CC(C)[C@H](O)C(=O)NC1Cc2ccc3c(c2)[C@]2(C4=C(c5nc(-c6ncc[nH]6)co5)N=C(O4)[C@H](C(C)C)NC1=O)c1ccccc1NC2O3` (some centres unmarked) [Compound 45], for which the IC50 turned out to be 318 nM in the test on U937 cells (setting [1]) and 589 nM in the test on A2058 cells.
For `Cc1nc(-c2coc(-c3nc4oc3[C@@]35c6ccccc6NC3Oc3ccc(cc35)C[C@H](NC(=O)[C@@H](O)C(C)C)C(=O)N[C@H]4C(C)C)n2)no1` (some centres unmarked) [Compound 46], in that order: 76.9 nM and 49 nM.
`Cc1noc(-c2coc(-c3nc4oc3[C@@]35c6ccccc6NC3Oc3ccc(cc35)C[C@H](NC(=O)[C@@H](O)C(C)C)C(=O)N[C@H]4C(C)(C)C)n2)n1` (some centres unmarked) [Compound 47]: the results for the IC50 with U937 cells (setting [1]) and in the test with A2058 cells were 14.2 nM and 7.06 nM, respectively.
As to `Cc1nnc(-c2coc(-c3nc4oc3[C@@]35c6ccccc6NC3Oc3ccc(cc35)C[C@H](NC(=O)[C@@H](O)C(C)C)C(=O)N[C@H]4C(C)(C)C)n2)o1` (some centres unmarked) [Compound 48], the IC50 with U937 cells (setting [1]) came out at 6.34 nM; in the test on A2058 cells, 6.11 nM.
`COC(=O)c1coc(-c2nc3oc2C24c5ccccc5NC2Oc2ccc(cc24)C[C@H](NC(=O)[C@@H](O)C(C)C)C(=O)N[C@H]3CC(C)C)n1` (some centres unmarked) [Compound 49]: the results for the IC50 in the test with U937 cells (setting [1]) and with A2058 cells were 223 nM and over 1000 nM, respectively.
On the same counts, the results for `COC(=O)c1coc(-c2nc3oc2C24c5ccccc5NC2Oc2ccc(cc24)C[C@H](NC(=O)[C@@H](O)C(C)C)C(=O)N[C@H]3C(C)(C)C)n1` (some centres unmarked) [Compound 50] are 12 nM and 53 nM.
For `COC(=O)c1coc(-c2nc3oc2C24c5ccccc5NC2Oc2ccc(cc24)C[C@H](NC(=O)[C@@H](O)C(C)C)C(=O)N[C@H]3Cc2ccccc2)n1` (some centres unmarked) [Compound 51], the IC50 in the test on U937 cells (setting [1]) and in the test on A2058 cells was over 1000 nM each time.
For `CCC[C@@H]1NC(=O)[C@@H](NC(=O)[C@@H](O)C(C)C)Cc2ccc3c(c2)C2(C4=C(c5nc(C(=O)OC)co5)N=C1O4)c1ccccc1NC2O3` (some centres unmarked) [Compound 52], the IC50 in the test with U937 cells (setting [1]) was 71 nM; in the test on A2058 cells it was 257 nM.
As to `COC(=O)c1coc(-c2nc3oc2[C@@]24c5ccccc5NC2Oc2ccc(cc24)C[C@H](NC(=O)[C@@H](O)C(C)C)C(=O)NC3)n1` (some centres unmarked) [Compound 53], the IC50 in the test with U937 cells (setting [1]) and in the test on A2058 cells was over 1000 nM in each case.
With `COC(=O)c1coc(-c2nc3oc2[C@@]24c5ccccc5NC2Oc2ccc(cc24)C[C@H](NC(=O)[C@@H](O)C(C)C)C2=NC3CO2)n1` (some centres unmarked) [Compound 54], the IC50 in the test with U937 cells (setting [1]) and with A2058 cells was over 1000 nM each time.
Consider `CC(C)[C@H](O)C(=O)N[C@H]1Cc2ccc3c(c2)[C@]2(C4=C(c5nc(CO)co5)N=C(O4)[C@H](C)NC1=O)c1ccccc1NC2O3` (some centres unmarked) [Compound 55], for which the IC50 in the test with U937 cells (setting [1]) and in the test with A2058 cells was over 1000 nM in each case.
For the compound `COC(=O)c1coc(-c2nc3oc2[C@@]24c5ccccc5NC2Oc2ccc(cc24)C[C@H](NC(=O)[C@@H](O)C(C)C)C(=O)N[C@H]3C)n1` (some centres unmarked) [Compound 56], the IC50 with U937 cells (setting [1]) was determined as 588 nM; with A2058 cells, 968 nM.
Take `CC(C)[C@H](O)C(=O)N[C@H]1Cc2ccc3c(c2)[C@]2(C4=C(c5nc(CO)co5)N=C(O4)[C@H](C(C)(C)C)NC1=O)c1ccccc1N[C@@H]2O3` [Compound 57]: the figures for the IC50 in the test on U937 cells (setting [1]) and with A2058 cells were 5.3 nM and 8.3 nM, respectively.
With `COC(=O)c1coc(-c2nc3oc2[C@]24c5ccccc5NC2Oc2ccc(cc24)C[C@H](NC(=O)[C@@H](O)C(C)C)C(=O)N[C@H]3C(C)(C)C)n1` (some centres unmarked) [Compound 59], the IC50 in the test on U937 cells (48 hour treatment) was 69 nM.
